Assay results from PMC4411097, “Pachymic Acid Inhibits Growth and Induces Apoptosis of Pancreatic Cancer In Vitro and In Vivo by Targeting ER Stress” (PLoS ONE, 2015).

Legend:
[1] = system: advanced pancreatic cancer; conditions: cited from earlier work
[2] = system: ER stress response proteins in MIA PaCa-2 cells; test: Western blot of ER stress response proteins; type: cell-based, human; conditions: MIA PaCa-2, TUDCA 200 μM with PA 30 μM, 24 h
Procedure: (§1) PANC-1, MIA PaCa-2 cells were treated with PA (0–30 μM) for 10 min, 30 min or 24 h, respectively. Whole protein extracts isolated from cells and tumor tissues were prepared and western blot analysis with anti-cleaved PARP, anti-XBP-1s, anti-ATF6, anti-ATF4, anti-Hsp70, anti-CHOP, anti-phospho-eIF2α or anti-eIF2α antibodies were performed as previously described. Western blots were quantified with HP-Scanjet 550c and analyzed by UN-SCAN-IT software (Silk Scientific, Orem, UT). Three independent experiments were done for all the immunoblot studies and quantitative data composed of all the experiments with statistical analysis were added below the representative blot image.

[3] = system: ER stress response proteins in PANC-1 cells; test: Western blot of ER stress response proteins; type: cell-based, human; conditions: PANC-1, TUDCA 200 μM with PA 30 μM, 24 h
Procedure: as §1

[4] = system: PANC-1 cells; test: Apoptosis, Cell Death Detection ELISA (cytoplasmic histone-associated DNA fragments); type: cell-based, human; conditions: PANC-1, TUDCA 200 μM with PA 30 μM, 24 h
Procedure: (§2) Apoptosis induction in PA-treated cells was assessed by quantitation of cytoplasmic histone-associated DNA fragments and western blotting for PARP cleavage (c-PARP). The Cell Death Detection ELISA^PLUS Kit (Roche, Indianapolis, IN) was used to detect the amount of cytoplasmic histone-associated DNA fragments according to the manufacturer’s instructions and expressed relative to vehicle-treated cells (set equal to 1).

[5] = system: MIA PaCa-2 cells; test: as above; type: cell-based, human; conditions: MIA PaCa-2, TUDCA 200 μM with PA 30 μM, 24 h
Procedure: as §2

[6] = system: PARP cleavage (c-PARP) in PANC-1 cells; test: Western blot for PARP cleavage (c-PARP); type: cell-based, human; conditions: PANC-1, TUDCA 200 μM with PA 30 μM, 24 h
Procedure: as §2, §1

[7] = system: PARP cleavage (c-PARP) in MIA PaCa-2 cells; test: Western blot for PARP cleavage (c-PARP); type: cell-based, human; conditions: MIA PaCa-2, TUDCA 200 μM with PA 30 μM, 24 h
Procedure: as §2, §1

SMILES | Response rate ([1]; advanced pancreatic cancer) | Median survival time ([1]; pancreatic cancer) | Tumor response rate ([1]; pancreatic cancer) | Effect of TUDCA on PA-induced ATF4 and CHOP [2] | Effect of TUDCA on PA-induced ATF4 and CHOP [3] | Effect of TUDCA on PA-associated nuclear DNA fragmentation [4] | Effect of TUDCA on PA-associated nuclear DNA fragmentation [5] | Effect of TUDCA on PA-associated c-PARP expression [6] | Effect of TUDCA on PA-associated c-PARP expression [7]
Nc1ccn([C@@H]2O[C@H](CO)[C@@H](O)C2(F)F)c(=O)n1 [Gemcitabine] | less than 20% | 5 months | 12% | – | – | – | – | – | –
C[C@H](CCC(=O)NCCS(=O)(=O)O)[C@H]1CC[C@H]2[C@@H]3[C@@H](O)C[C@@H]4C[C@H](O)CC[C@]4(C)[C@H]3CC[C@]12C [TUDCA, tauroursodeoxycholic acid, reference compound] | – | – | – | blocked the induction of ATF4 and CHOP | blocked the induction of ATF4 and CHOP | rescued | rescued | blocked the enormous increase in the expression of c-PARP | blocked the enormous increase in the expression of c-PARP
